Data reported in ChEMBL document CHEMBL5252553, “Synthesis and biological activities of drugs for the treatment of osteoporosis” (Eur J Med Chem, 2020).

Assay: n-Octanol/water partition coefficient, log P of the compound
Type: physicochemical

| SMILES | logP |
| --- | --- |
| CCCCCCCCCCCCCCCCCC(=O)NCCCC(O)(P(=O)(O)O)P(=O)(O)O | 0.063 |
| CCCCCCCCCCCCCCCC(=O)NCCCC(O)(P(=O)(O)O)P(=O)(O)O | 0.053 |
| CCCCCCCCCCCCCC(=O)NCCCC(O)(P(=O)(O)O)P(=O)(O)O | 0.045 |
| CCCCCCCCCCCC(=O)NCCCC(O)(P(=O)(O)O)P(=O)(O)O | 0.027 |
